Experimental data from PMC11620482, “Phase 1 drug-drug interaction study to assess the effect of CYP3A4 inhibition and pan-CYP induction on the pharmacokinetics and safety of fosmanogepix in healthy participants” (Antimicrobial Agents and Chemotherapy, 2024).
Marks after values point to notes of the source that are not given here.

Legend:
[1] = Safety and tolerability (adverse events, laboratory findings), phase 1 DDI study
Procedure: Participants were also excluded if they used any prescription medication (except female contraception) and any over-the-counter medications/supplements within 14 days and 7 days prior to the first admission, respectively.
In both cohorts, FMGX was administered as a 3-hour IV infusion twice a day (BID, dosing interval: […]). All participants received FMGX on 2 days, once before a washout period (minimum 14 days) and once after the washout. […] The study consisted of a screening phase [days −28 to −1 (admission)], assessment phase (cohort 1: days −1 to 31; cohort 2: days −1 to 34), and follow-up phase (cohort 1: day 38 ± 1; cohort 2: day 41 ± 1). Participants in both cohorts had in-clinic stays for two periods: cohort 1 [days −1 to 4 (morning) and days 17 to 31 (morning)], cohort 2 [days −1 to 4 (morning) and day 23 to 34 (morning)], and at home dosing for two periods: cohort 1 (days 15 to 17) and cohort 2 (days 15 to 23).
Safety was assessed by evaluating the frequency of adverse events (AEs) recorded from the first admission (day −1) until completion of the follow-up visit (day 38 ± 1 in cohort 1; day 41 ± 1 in cohort 2). All AEs were classified per the Medical Dictionary for Regulatory Activities (MedDRA v22.1). The investigator ascertained relatedness to study the drug administration.
An analysis of variance (ANOVA) model was used to analyze the natural log-transformed primary PK parameters while the secondary PK parameters were not subjected to inferential statistical analysis. For each cohort, 18 participants were included to ensure at least 16 completed all assessments, as this was considered adequate to evaluate PK, safety, and tolerability. Thus, a sample size of 36 was considered sufficient to assess primary and secondary objectives. […] The PK analysis set included all participants who received at least one dose of FMGX and had adequate plasma concentration data available for PK analysis.

[2] = Plasma pharmacokinetics of MGX and FMGX (noncompartmental analysis), phase 1 fixed-sequence DDI study with itraconazole or rifampin; type: in vivo, human; settings: for FMGX AUC(0-23) / FMGX AUC(0-t) / FMGX Cmax / FMGX Tmax / FMGX AUC(inf) / FMGX CL / FMGX Vz / FMGX t½ / FMGX λz: D1; for FMGX AUC(0-23) / FMGX AUC(0-t) / FMGX Cmax / FMGX AUC(inf) / FMGX CL / FMGX Vz / FMGX t½ / FMGX λz: geometric mean (geometric %CV); for FMGX Tmax: median (range)
Procedure: In cohort 1, MGX plasma samples were collected at specified time points daily on days 1–4, once every 2 days on days 6–14, daily for 3 days from days 18 to 20, once every 2 days from days 21 to 29, and then on day 31, while itraconazole samples were collected at specified time points on days 19, 25, and 31. […] PK parameters were calculated using noncompartmental analysis from the plasma concentration-time data for MGX and FMGX. Primary PK parameters were maximum observed plasma concentration (Cmax), AUC from time 0 to infinity (AUC0-inf), and AUC up to time t (AUC0-t, where t was the last time point with concentrations above the lower limit of quantitation). […] Secondary PK parameters were time to attain Cmax (Tmax), AUC from time 0 to 23 hours (AUC0-23), terminal elimination half-life after the last dosing on the day (t1/2), clearance (CL), volume of distribution at terminal phase (Vz), and terminal phase rate constant after the last dosing on the day (λz).

[3] = test system: Candida, Coccidioides, Cryptococcus, and Aspergillus spp; settings: cited from earlier work
CYP450 enzymes = settings: cited from earlier work
human CYPs = settings: concentrations up to 30 µM in vitro; ref data on file; cited from earlier work
[4] = one participant, cohort 1, considered related to itraconazole, days 31 through 70
[5] = FMGX only 500 mg BID IV, Cohort 1, n = 16
[6] = FMGX only 500 mg BID IV, Cohort 1, n=12
[7] = FMGX only 1000 mg BID IV, Cohort 2, n = 17

SMILES: CCC(C)n1ncn(-c2ccc(N3CCN(c4ccc(OCC5COC(Cn6cncn6)(c6ccc(Cl)cc6Cl)O5)cc4)CC3)cc2)c1=O (stereo not shown) [ITR, itraconazole, reference compound]
- Increase in alanine transaminase (ALT) [1, 4]: ~ 8 × ULN
- Increase in aspartate transaminase (AST) [1, 4]: ~ 11 × ULN
- Increase in lactate dehydrogenase (LDH) ([1]; one participant, cohort 1, day 31 to day 63): ~ 2 × ULN

SMILES: Nc1c(-c2cc(Cc3ccc(COc4ccccn4)cc3)no2)ccc[n+]1COP(=O)([O-])O [FMGX, Fosmanogepix]
- FMGX AUC(0-23) [2, 5]: 9945 (16.5) hr×ng/mL
- FMGX AUC(0-t) [2, 5]: 9945 (16.5) hr×ng/mL
- FMGX Cmax [2, 5]: 1520 (18.6) ng/mL
- FMGX Tmax [2, 5]: 10.5 (0.50 – 12.0) hr
- FMGX AUC(inf) [2, 6]: 10191 (18.3)** hr×ng/mL
- FMGX CL [2, 6]: 98128 (18.3)** mL/hr
- FMGX Vz [2, 6]: 53.6 (22.5)** L
- FMGX t½ [2, 6]: 0.38 (14.4)** hr
- FMGX λz [2, 6]: 1.83 (14.4)** 1/hr
- FMGX AUC(0-23) [2, 7]: 18162 (22.3) hr×ng/mL
- FMGX AUC(0-t) [2, 7]: 18162 (22.3) hr×ng/mL
- FMGX AUC(inf) [2, 7]: 18163 (22.3) hr×ng/mL
- FMGX CL [2, 7]: 110117 (22.3) mL/hr
- FMGX Cmax [2, 7]: 2974 (24.2) ng/mL
- FMGX Vz [2, 7]: 69.4 (30.4) L
- FMGX t½ [2, 7]: 0.44 (18.4) hr
- FMGX λz [2, 7]: 1.59 (18.4) 1/hr
- FMGX Tmax [2, 7]: 9.50 (0.50 – 12.1) hr
- Effect of CYP3A4 inhibition or pan-CYP induction on exposure to FMGX ([2]; both cohorts): did not affect exposure
- FMGX-related AEs / all events ([1]; Cohort 1, FMGX 500 mg): 4/43
- FMGX-related AEs / all events ([1]; Cohort 2, FMGX 1,000 mg): 33/145
- Safety and tolerability ([1]; FMGX 500 and 1,000 mg, alone or with itraconazole 200 mg or rifampin 600 mg): safe and well tolerated
- Deaths, serious AEs (SAEs), FMGX-related withdrawals ([1]; both cohorts, N = 36): No deaths, serious AEs (SAEs), or FMGX-related withdrawals
- Participants reporting FMGX-related AEs, n (%) ([1]; both cohorts, N = 36): 12 (33.3%)
- AEs considered related to FMGX, number of events ([1]; of all 188 events, both cohorts): 37
- Efficacy in mouse models of invasive pulmonary and disseminated fungal infections [3]: demonstrated efficacy
- Substrate for CYP450 enzymes (CYP450 enzymes): not a substrate
- Reversible or time-dependent inhibition of human CYPs (human CYPs): No reversible or time-dependent inhibition
